pEC50, pIC50, pKd, pKi: −log10 of the molar value.
Legend:
[1] = biological target: T1, Gamma-aminobutyric acid receptor subunit rho-2 (Homo sapiens, UniProt P28476); experiment: Activation of human rho2 GABA-C receptor at 34% of maximal GABA-induced response
[2] = biological target: T2, Gamma-aminobutyric acid receptor subunit rho-1 (Homo sapiens, UniProt P24046); experiment: Antagonist activity against rho-1 subunit GABA-C receptor expressed in Xenopus oocytes; format: functional, cell-based; conditions: Oocyte
T2 sequence (P24046 whole entry): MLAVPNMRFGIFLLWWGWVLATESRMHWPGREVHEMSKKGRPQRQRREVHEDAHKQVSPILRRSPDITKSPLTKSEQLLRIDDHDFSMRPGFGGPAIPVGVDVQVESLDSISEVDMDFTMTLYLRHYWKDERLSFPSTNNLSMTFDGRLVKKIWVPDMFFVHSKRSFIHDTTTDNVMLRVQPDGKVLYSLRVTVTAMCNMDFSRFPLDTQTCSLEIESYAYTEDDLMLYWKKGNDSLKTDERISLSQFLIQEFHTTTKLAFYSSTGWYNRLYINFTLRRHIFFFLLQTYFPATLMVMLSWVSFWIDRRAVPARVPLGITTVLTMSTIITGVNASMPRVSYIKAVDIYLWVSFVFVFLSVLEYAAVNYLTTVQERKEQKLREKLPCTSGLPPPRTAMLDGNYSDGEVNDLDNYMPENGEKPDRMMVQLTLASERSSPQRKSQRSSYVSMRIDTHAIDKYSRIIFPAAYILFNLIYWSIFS

[3] = biological target: T2, Gamma-aminobutyric acid receptor subunit rho-1; experiment: Partial agonist activity against human rho1 subunit GABA-C receptor expressed in Xenopus oocytes; format: functional, cell-based, Oocyte
[4] = biological target: T1, Gamma-aminobutyric acid receptor subunit rho-2; experiment: Partial agonist activity against human rho-2 subunit GABA-C receptor expressed in Xenopus oocytes; format: functional, cell-based, Oocyte
[5] = biological target: GABA-A receptor; anion channel; experiment: Affinity against recombinant Gamma-aminobutyric acid A (GABA-A) receptor; format: protein-complex assay
[6] = biological target: GABA-A receptor; anion channel; experiment: Competitive antagonist activity against Gamma-aminobutyric acid A (GABA-A) receptor; format: functional
[7] = biological target: T2, Gamma-aminobutyric acid receptor subunit rho-1; experiment: Partial agonist activity against rho-1 subunit GABA-C receptor expressed in Xenopus oocytes; format: functional, cell-based, Oocyte
[8] = biological target: GABA-A receptor; anion channel; experiment: Potent antagonist activity against Gamma-aminobutyric acid A (GABA-A) receptor from rat cortex RNA expressed in Xenopus oocytes; format: functional, cell-based; conditions: oocyte
[9] = biological target: T1, Gamma-aminobutyric acid receptor subunit rho-2; experiment: Partial agonist activity with low efficacy against rho-2 subunit GABA-C receptor expressed in Xenopus oocytes; format: functional, cell-based, Oocyte
[10] = biological target: T2, Gamma-aminobutyric acid receptor subunit rho-1; experiment: Partial agonist activity against rho-1 subunit GABA-C receptor expressed in Xenopus oocytes with low efficacy; format: functional, cell-based, Oocyte
[11] = biological target: T2, Gamma-aminobutyric acid receptor subunit rho-1; experiment: Full agonist activity against human rho-1 subunit GABA-C receptor expressed in Xenopus oocytes; format: functional, cell-based, Oocyte
[12] = biological target: T1, Gamma-aminobutyric acid receptor subunit rho-2; experiment: Full agonist activity against human rho-2 subunit GABA-C receptor expressed in Xenopus oocytes; format: functional, cell-based, Oocyte
[13] = biological target: GABA-C receptor (Homo sapiens) (UniProt P28476+A8MPY1+P24046); experiment: Antagonist activity against rho subunit Gamma-aminobutyric acid C (GABA-C) receptor expressed in Xenopus oocytes; format: functional, cell-based; conditions: Oocyte
GABA-C receptor (Homo sapiens), sequence (A8MPY1 whole entry, looked up): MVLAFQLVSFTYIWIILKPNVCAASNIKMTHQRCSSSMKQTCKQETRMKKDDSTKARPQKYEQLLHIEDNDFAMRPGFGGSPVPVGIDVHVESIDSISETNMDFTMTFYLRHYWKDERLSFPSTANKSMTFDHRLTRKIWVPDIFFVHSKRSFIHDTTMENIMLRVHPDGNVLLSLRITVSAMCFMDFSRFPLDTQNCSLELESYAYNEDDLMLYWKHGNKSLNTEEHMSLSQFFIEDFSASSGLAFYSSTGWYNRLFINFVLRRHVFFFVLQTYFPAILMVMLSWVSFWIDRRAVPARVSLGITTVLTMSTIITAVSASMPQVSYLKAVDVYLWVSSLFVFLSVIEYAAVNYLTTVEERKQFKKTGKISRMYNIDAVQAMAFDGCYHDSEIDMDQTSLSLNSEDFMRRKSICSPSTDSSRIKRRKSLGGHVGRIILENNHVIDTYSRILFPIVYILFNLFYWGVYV
GABA-C receptor (Homo sapiens), sequence (P24046 whole entry, looked up): as the sequence (P24046 whole entry) above
GABA-C receptor (Homo sapiens), sequence (P28476 whole entry, looked up): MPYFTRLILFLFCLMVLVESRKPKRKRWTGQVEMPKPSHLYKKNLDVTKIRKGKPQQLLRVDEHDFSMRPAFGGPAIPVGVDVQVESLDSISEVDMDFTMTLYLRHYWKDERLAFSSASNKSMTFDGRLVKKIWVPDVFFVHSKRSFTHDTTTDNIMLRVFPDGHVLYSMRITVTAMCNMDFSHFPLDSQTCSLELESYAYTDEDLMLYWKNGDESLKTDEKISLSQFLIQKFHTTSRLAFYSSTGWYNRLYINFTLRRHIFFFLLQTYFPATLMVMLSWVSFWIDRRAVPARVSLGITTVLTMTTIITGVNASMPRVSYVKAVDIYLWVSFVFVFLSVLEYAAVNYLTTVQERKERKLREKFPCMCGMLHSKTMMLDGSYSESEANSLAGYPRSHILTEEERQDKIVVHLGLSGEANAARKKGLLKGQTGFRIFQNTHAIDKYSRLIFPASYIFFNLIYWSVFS

[14] = biological target: T1, Gamma-aminobutyric acid receptor subunit rho-2; experiment: Partial agonist activity against rho-2 subunit GABA-C receptor expressed in Xenopus oocytes, higher intrinsic activity (Im 38%); format: functional, cell-based, Oocyte
[15] = biological target: T2, Gamma-aminobutyric acid receptor subunit rho-1; experiment: Partial agonist activity against rho-1 subunit GABA-C receptor expressed in Xenopus oocytes, low intrinsic activity (Im 3%); format: functional, cell-based, Oocyte
[16] = biological target: T2, Gamma-aminobutyric acid receptor subunit rho-1; experiment: Partial agonist activity against human rho-1 subunit GABA-C receptor expressed in Xenopus oocytes; format: functional, cell-based, Oocyte
[17] = biological target: GABA-A receptor; anion channel; experiment: Inhibitory activity against Gamma-aminobutyric acid A (GABA-A) receptor from rat cultured cortical neuron RNA expressed in Xenopus oocytes; format: functional, cell-based; conditions: oocyte
[18] = biological target: GABA-A receptor; anion channel; experiment: Non-competitive antagonist activity against Gamma-aminobutyric acid A (GABA-A) receptor; format: functional, Rattus norvegicus
[19] = biological target: GABA-A receptor; anion channel; experiment: Antagonist activity against Gamma-aminobutyric acid A (GABA-A) receptor; format: functional, Rattus norvegicus
GABA-C receptor = GABA-C receptor (Homo sapiens, UniProt A8MPY1+P24046+P28476); experiment: Agonist activity against Gamma-aminobutyric acid type C (GABA-C) receptor derived from bovine retinal RNA expressed in Xenopus oocytes; format: functional, cell-based, Bos taurus, Oocyte
GABA-C receptor, sequence (P28476 whole entry): as the sequence (P28476 whole entry, looked up) above
GABA-C receptor, sequence (A8MPY1 whole entry): as the sequence (A8MPY1 whole entry, looked up) above
GABA-C receptor, sequence (P24046 whole entry): as the sequence (P24046 whole entry) above

[20] = biological target: T1, Gamma-aminobutyric acid receptor subunit rho-2; experiment: Partial agonist activity against homomeric rho-2 subunit GABA-C receptor expressed in Xenopus oocytes; format: functional, cell-based, Oocyte

T1 sequence (P28476 whole entry): as the sequence (P28476 whole entry, looked up) above

C/C(=C\CN)C(=O)O
pEC50 [1]: 4.00
Kb [2]: 45 µM

NC/C=C\C(=O)O
pEC50 [3]: 4.13
pEC50 [4]: 4.15

O=c1cc(-c2cccc([N+](=O)[O-])c2)oc2cccc(Br)c12
pKi [5]: 7.52

c1ccc2c(NCCCCCCCNc3c4c(nc5ccccc35)CCCC4)c3c(nc2c1)CCCC3
pIC50 [6]: 5.22

NC/C=C(\F)C(=O)O
pEC50 [7]: 5.61

O=S(=O)(O)C1CCNCC1
pKd [8]: 3.98

NC[C@@H]1C[C@@H]1C(=O)O (relative stereo)
pEC50 [9]: 4.76
pEC50 [10]: 4.70
pEC50 [11]: 4.17
pEC50 [12]: 4.46

COC(=O)[C@H]1[C@@H](OC(=O)c2ccccc2)C[C@@H]2CC[C@H]1N2C [COCAINE]
pIC50 [5]: 3.90

NCCCS(=O)O [HOMOHYPOTAURINE]
pEC50 [3]: 5.34

O=C(O)Cc1c[nH]cn1 [IMIDAZOLE ACETIC ACID]
Kb [13]: 1.5 µM
pEC50 [14]: 5.52
pEC50 [15]: 4.80

NCc1cc(=O)[nH]o1 [MUSCIMOL]
pKd [4]: 5.85
pKd [16]: 5.64

CCCCCCCC/C=C\CCCCCCCC(N)=O [OLEAMIDE]
pEC50 [17]: 4.82

Cc1nccn1CC1CCc2c(c3ccccc3n2C)C1=O (centres undefined) [ONDANSETRON]
pIC50 [18]: 5.00

Cc1ccc2c(c1)c1c3n2CCNC3CCC1 (centres undefined) [PIRLINDOLE]
pEC50 [19]: 4.92

NC/C=C/C(=O)O [t-4-AMINOCROTONIC ACID (TACA)]
pKd (GABA-C receptor): 6.22
pEC50 [20]: 6.40

From ChEMBL document CHEMBL1133003, “GABA-Activated ligand gated ion channels: medicinal chemistry and molecular biology” (J Med Chem, 2000)
